Laboratory results reported in ChEMBL document CHEMBL1201862, “PubChem BioAssay data set” (2004).
Calls of active or inactive are those of the source.

Tests used:
[1] = target: Voltage-dependent T-type calcium channel subunit alpha-1H (Homo sapiens, UniProt O95180); assay type: functional;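 note: channel activity triggered by adding a high calcium stimulation buffer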
[2] = cytotoxicity in HEK-293T cells, dose response, cytotoxicity control for BCR NF-kB inhibitor project, luminescence, B-cell screen hits (AID 489021); assay type: functional, cell-based;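 note: HEK-293T cells carrying an NF-kB luciferase reporter; cells exposed to compound for about 14 hours before viability readout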
[3] = target: T1, Voltage-gated N-type calcium channel alpha-1B subunit/Amyloid beta A4 precursor protein-binding family A member 1 (Homo sapiens, UniProt Q00975+Q02410); assay type: protein assay
[4] = target: T1, Voltage-gated N-type calcium channel alpha-1B subunit/Amyloid beta A4 precursor protein-binding family A member 1; assay type: protein assay; remark: listed apart in the source
Leucine aminopeptidase = target: T2, Leucine aminopeptidase (Plasmodium falciparum 3D7, UniProt Q8IL11); assay: P. falciparum M17LAP inhibitors, primary screen, biochemical, fluorogenic H-Leu-NHMec substrate, 1536-well (AID 1619); assay type: functional
T2 sequence (Q8IL11 whole entry): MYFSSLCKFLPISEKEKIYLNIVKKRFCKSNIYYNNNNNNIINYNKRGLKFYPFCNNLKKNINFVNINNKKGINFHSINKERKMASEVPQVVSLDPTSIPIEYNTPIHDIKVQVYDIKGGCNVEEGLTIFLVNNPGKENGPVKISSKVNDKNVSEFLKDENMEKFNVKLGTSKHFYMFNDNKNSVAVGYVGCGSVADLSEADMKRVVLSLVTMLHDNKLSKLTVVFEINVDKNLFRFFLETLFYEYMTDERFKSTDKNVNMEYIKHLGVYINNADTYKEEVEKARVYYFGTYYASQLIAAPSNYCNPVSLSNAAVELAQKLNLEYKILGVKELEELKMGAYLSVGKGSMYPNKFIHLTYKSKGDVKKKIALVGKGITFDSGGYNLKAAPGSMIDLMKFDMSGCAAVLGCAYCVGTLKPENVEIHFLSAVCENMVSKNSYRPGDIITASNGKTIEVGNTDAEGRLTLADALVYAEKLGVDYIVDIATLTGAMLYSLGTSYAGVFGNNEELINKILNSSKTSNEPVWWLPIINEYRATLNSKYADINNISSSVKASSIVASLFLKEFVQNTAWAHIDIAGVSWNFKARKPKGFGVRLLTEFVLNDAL

Genome polyprotein = Genome polyprotein (dengue virus type 2, UniProt P29990); assay: Dengue-2 NS5 methyltransferase inhibitors, primary screen, biochemical, confirmation dose response (AID 588689); assay type: functional
Sequence of Genome polyprotein (P29990 2492-3391 limits assumed): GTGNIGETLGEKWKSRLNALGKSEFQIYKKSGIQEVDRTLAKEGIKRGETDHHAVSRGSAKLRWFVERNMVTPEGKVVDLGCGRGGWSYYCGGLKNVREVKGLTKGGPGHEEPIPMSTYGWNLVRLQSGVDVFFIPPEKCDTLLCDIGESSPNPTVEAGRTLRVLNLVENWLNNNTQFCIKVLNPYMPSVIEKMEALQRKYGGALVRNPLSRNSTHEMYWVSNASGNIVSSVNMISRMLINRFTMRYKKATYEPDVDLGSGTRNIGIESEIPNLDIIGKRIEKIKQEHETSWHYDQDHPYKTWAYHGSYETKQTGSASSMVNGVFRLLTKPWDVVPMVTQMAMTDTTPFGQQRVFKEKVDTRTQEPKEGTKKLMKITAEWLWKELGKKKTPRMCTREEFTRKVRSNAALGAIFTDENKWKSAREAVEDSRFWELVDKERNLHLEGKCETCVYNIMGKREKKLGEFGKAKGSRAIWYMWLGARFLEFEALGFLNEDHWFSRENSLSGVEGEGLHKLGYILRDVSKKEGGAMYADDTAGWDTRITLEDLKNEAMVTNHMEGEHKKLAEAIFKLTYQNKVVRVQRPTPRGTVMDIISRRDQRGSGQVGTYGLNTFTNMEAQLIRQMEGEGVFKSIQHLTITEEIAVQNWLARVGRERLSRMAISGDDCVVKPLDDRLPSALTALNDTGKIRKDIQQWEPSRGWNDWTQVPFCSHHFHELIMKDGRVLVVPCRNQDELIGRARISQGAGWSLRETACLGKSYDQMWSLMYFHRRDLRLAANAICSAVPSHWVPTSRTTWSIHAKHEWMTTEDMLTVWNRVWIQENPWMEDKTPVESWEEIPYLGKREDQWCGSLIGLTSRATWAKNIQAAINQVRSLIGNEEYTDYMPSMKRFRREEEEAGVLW

cells = assay type: functional
[5] = cytotoxicity in HEK-293T cells, dose response, cytotoxicity control for TCR NF-kB inhibitor project, luminescence, T-cell screen hits (AID 489026); assay type: functional, cell-based;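 note: cells exposed to compound about 14 hours before the viability readout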
[6] = inhibitors of firefly luciferase expression or activity, dose response, H4 neuroglioma cells, luminescence (AID 1990); assay type: functional, cell-based
[7] = Luminescence Cell-Based Dose Response HTS to Identify Inhibitors of 5'UTR Stem-Loop Driven Prion Protein mRNA Translation in H4 Neuroglioblastoma Cells. [Related pubchem assays: 1827 (Project Summary), 1813 (Primary HTS)]; assay type: functional
[8] = inhibitors of SNCA 5'UTR-driven reporter translation, confirmation, H4 neuroglioma cells, luminescence (AID 1988); assay type: functional, cell-based
[9] = THP-1 cell cytotoxicity, dose response, cytotoxicity control for Vif-APOBEC3G degradation inhibitor project, THP-1 cells (AID 1117359); assay type: functional; details: Human immunodeficiency virus 1, THP-1
[10] = target: T3, RNA-binding protein pos-1 (Caenorhabditis elegans, UniProt G5EF15); assay: inhibitors of POS-1/mex-3 RNA binding, dose response, biochemical, fluorescence polarization (AID 1964);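 note: purified POS-1 fused to maltose binding protein made in E. coli; potency of compounds blocking POS-1 binding to fluorescent RNA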
T3 sequence (G5EF15 whole entry): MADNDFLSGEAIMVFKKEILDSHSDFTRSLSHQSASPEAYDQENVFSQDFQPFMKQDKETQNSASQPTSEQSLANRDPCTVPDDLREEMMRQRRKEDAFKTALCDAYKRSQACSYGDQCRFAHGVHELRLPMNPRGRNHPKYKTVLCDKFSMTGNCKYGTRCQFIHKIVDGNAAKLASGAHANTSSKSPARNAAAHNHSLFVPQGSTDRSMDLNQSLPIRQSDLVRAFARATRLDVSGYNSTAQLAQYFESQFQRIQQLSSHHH

[11] = target: T4, Zinc finger protein mex-5 (Caenorhabditis elegans, UniProt Q9XUB2); assay: MEX-5/TCR-2 RNA interaction inhibitors, dose response, biochemical, C. elegans, fluorescence polarization (AID 1960)
T4 sequence (Q9XUB2 whole entry): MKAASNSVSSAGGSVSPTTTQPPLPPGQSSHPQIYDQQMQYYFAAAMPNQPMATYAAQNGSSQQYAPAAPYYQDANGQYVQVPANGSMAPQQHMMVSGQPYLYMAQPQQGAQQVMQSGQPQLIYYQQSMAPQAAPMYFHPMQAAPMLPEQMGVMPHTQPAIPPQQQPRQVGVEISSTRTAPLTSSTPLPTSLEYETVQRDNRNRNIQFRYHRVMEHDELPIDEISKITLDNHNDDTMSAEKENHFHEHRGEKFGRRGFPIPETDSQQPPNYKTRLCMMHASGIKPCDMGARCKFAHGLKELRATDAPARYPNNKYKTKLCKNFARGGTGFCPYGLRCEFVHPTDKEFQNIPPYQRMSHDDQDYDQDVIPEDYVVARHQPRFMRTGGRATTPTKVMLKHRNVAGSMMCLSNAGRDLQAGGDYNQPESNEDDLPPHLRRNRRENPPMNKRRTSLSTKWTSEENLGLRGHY

[12] = target: T5, Polyadenylate-binding protein 1 (Homo sapiens, UniProt P11940); assay: PABP1 MLLE–PAM2 interaction inhibitors, dose response, miRNA deadenylation inhibitor project, biochemical, fluorescence polarization, Cy5-PAM2 peptide, secondary (AID 602260); assay type: functional; details: read-out: IC50_Mean
T5 sequence (P11940 whole entry): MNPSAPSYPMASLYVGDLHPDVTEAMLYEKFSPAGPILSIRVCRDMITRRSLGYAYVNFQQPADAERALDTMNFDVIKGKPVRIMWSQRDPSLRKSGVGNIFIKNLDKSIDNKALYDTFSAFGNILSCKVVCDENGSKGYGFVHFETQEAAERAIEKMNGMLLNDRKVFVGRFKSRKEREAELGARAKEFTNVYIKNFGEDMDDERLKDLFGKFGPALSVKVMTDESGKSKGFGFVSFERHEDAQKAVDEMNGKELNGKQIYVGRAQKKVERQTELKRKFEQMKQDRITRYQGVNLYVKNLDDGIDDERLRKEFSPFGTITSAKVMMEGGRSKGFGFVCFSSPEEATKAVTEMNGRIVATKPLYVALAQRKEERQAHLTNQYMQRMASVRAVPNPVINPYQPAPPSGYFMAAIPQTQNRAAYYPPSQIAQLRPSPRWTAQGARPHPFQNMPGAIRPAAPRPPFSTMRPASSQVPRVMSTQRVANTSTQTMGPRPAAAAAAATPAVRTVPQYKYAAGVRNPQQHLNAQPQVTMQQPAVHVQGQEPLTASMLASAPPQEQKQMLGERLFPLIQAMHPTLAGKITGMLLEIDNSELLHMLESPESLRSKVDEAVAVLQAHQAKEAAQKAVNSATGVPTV

[13] = target: T5, Polyadenylate-binding protein 1; assay: PABP1 MLLE–PAM2 binding inhibitor potency, dose response, biochemical, fluorescence polarization, FITC-PAM2 peptide (AID 602259); assay type: functional; details: read-out: IC50_Mean
Large T antigen = Large T antigen (Simian virus 40, UniProt P03070); assay type: functional, Betapolyomavirus macacae;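 note: Confirmatory-stage PubChem screen for compounds that inhibit SV40 T antigen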
Sequence of Large T antigen (P03070 whole entry): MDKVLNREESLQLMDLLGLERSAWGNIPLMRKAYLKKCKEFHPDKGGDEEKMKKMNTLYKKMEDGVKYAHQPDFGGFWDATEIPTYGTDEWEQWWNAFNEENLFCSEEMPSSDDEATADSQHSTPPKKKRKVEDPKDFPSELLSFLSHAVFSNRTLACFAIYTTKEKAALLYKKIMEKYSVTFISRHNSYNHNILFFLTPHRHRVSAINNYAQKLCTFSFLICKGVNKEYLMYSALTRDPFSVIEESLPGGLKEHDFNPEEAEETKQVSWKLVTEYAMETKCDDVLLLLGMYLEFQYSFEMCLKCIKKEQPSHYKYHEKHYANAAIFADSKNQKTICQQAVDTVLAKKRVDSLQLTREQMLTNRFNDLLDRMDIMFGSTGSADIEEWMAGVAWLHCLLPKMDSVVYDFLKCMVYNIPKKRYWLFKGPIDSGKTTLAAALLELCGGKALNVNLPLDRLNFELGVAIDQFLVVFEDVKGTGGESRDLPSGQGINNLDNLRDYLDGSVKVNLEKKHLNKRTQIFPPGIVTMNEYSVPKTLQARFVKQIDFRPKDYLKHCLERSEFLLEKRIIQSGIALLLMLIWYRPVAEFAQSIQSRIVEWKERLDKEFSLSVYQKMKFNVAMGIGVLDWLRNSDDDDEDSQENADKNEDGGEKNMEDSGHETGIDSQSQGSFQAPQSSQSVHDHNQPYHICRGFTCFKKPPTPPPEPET

[14] = target: FAD-linked sulfhydryl oxidase ALR (Homo sapiens, UniProt P55789); assay: inhibitors of human ALR sulfhydryl oxidase, dose response, biochemical, H2O2 detection, luminescence, cherry-pick (AID 493248)
Sequence of FAD-linked sulfhydryl oxidase ALR (P55789 whole entry): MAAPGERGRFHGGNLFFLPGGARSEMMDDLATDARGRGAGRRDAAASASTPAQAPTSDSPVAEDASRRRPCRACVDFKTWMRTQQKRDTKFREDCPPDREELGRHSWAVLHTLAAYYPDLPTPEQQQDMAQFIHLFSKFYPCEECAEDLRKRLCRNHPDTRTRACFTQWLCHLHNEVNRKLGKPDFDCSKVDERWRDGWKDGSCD

[15] = target: T6, Histone-lysine N-methyltransferase NSD2 (Homo sapiens, UniProt O96028); assay type: biochemical
T6 sequence (O96028 whole entry): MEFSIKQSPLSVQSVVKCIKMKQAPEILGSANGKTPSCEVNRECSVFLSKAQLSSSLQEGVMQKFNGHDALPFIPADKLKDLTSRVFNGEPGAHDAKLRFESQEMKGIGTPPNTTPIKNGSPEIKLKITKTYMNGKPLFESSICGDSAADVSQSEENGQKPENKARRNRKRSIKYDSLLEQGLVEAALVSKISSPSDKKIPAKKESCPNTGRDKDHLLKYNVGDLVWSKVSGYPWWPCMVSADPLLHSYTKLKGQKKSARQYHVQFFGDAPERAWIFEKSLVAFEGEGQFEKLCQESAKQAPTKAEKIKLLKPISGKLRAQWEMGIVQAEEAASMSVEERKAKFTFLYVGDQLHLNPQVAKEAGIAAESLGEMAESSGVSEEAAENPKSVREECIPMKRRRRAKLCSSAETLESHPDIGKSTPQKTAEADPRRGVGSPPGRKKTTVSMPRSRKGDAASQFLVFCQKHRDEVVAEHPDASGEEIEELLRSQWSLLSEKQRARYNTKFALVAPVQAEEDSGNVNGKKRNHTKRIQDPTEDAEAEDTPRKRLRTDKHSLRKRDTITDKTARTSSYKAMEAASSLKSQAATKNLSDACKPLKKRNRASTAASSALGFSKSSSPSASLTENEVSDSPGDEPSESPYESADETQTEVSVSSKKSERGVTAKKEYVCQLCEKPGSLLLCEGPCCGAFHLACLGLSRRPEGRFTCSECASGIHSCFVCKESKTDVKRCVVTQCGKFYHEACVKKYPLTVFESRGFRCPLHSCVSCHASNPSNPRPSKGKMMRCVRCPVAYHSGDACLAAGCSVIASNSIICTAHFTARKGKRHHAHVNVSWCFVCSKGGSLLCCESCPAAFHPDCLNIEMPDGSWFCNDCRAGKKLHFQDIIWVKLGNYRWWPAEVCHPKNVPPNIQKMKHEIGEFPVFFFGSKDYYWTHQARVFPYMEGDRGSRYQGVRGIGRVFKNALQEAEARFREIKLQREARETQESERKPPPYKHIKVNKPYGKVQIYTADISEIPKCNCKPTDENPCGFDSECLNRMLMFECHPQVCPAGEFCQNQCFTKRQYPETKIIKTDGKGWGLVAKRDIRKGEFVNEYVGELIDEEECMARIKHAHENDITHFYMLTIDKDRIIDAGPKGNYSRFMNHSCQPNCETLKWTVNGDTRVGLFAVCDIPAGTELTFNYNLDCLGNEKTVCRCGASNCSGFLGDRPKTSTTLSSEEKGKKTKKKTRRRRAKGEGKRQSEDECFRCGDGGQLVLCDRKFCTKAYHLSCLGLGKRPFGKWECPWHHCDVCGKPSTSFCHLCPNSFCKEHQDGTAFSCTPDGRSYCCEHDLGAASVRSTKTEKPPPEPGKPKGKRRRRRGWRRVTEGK

Sequence of Voltage-dependent T-type calcium channel subunit alpha-1H (O95180 whole entry): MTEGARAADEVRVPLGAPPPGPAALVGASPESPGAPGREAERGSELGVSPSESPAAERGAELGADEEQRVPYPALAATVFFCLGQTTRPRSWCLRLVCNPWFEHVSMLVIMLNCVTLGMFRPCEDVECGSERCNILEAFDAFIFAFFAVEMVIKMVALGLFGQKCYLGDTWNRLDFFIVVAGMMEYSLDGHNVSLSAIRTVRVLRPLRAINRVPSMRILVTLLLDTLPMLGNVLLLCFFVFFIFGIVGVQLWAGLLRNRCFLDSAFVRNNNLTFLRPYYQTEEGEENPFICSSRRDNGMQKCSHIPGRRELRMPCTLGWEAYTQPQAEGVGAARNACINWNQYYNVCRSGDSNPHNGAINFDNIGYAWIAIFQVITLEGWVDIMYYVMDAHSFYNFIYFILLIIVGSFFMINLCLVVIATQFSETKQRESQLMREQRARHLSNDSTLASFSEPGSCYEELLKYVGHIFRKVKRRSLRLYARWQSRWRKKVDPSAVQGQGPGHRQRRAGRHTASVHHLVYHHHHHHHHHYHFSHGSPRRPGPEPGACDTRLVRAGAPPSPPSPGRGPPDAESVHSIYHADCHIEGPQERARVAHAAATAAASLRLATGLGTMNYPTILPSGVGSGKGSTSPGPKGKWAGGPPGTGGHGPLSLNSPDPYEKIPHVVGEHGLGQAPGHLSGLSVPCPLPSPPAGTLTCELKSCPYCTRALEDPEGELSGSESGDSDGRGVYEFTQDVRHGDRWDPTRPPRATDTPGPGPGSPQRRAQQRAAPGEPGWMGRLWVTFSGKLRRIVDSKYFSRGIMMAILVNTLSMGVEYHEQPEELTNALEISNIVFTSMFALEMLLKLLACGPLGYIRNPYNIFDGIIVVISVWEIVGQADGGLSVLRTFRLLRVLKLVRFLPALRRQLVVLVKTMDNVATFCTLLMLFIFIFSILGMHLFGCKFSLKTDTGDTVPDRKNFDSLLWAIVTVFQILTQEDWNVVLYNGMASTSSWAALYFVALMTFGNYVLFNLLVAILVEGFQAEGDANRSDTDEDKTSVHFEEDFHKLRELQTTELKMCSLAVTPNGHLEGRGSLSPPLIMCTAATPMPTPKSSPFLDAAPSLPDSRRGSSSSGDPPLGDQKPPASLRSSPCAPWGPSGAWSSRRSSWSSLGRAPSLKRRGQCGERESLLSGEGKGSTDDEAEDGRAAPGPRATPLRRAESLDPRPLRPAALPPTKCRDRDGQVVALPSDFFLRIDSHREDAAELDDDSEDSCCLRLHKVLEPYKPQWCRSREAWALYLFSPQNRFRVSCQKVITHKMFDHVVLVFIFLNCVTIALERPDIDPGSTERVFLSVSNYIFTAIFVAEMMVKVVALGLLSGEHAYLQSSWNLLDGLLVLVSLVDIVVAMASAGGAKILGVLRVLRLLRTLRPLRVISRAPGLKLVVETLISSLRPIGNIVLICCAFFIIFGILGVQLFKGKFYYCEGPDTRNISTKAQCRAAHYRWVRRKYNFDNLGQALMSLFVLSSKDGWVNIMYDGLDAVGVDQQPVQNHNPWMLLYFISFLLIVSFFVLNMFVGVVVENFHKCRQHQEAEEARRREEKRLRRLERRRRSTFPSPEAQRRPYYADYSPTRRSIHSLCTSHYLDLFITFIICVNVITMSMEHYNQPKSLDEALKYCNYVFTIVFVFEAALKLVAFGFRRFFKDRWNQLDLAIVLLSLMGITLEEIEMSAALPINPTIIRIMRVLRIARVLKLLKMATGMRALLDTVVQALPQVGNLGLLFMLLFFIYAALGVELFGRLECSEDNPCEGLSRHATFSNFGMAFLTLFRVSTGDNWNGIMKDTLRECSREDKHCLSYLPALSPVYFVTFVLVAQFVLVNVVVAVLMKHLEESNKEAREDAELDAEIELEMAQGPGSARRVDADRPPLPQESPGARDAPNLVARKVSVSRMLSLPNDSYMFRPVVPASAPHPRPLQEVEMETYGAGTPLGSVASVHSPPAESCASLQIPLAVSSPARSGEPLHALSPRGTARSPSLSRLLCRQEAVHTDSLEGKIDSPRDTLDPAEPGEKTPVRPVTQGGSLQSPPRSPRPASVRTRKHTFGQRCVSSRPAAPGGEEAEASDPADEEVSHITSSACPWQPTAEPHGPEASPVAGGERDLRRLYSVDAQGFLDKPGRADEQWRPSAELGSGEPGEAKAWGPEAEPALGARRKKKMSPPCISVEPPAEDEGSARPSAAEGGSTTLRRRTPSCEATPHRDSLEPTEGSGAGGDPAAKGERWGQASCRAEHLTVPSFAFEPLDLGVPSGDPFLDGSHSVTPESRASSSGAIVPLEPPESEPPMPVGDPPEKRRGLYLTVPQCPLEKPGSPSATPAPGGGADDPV

With `Cc1cc(C)cc(N(CC(=O)NCc2ccc3c(c2)OCO3)C(=O)CCC(=O)Nc2ccccn2)c1` the EC50 [1] was 2.74 µM (active).

In the case of `CCc1ccc(/C=C2/SC(=S)N(CCC(=O)Nc3cccc(C(=O)O)c3)C2=O)cc1`, the IC50 [2] is reported as > 80 µM (inactive).

With `CCCC(C(=O)NC1CCCC1)N(C(=O)Cn1nnc(-c2ccc(C)o2)n1)C1CCCC1` (stereo not drawn) the IC50 [3] was 0.221 µM (active) and the IC50 [4] was 45 µM (active).

For `O=C(Nc1nncs1)c1ccccc1Br`, the IC50 (Leucine aminopeptidase) was 16 µM (active).

In the case of `Cc1sc(NC(=O)C2CCCCC2C(=O)O)c(C(N)=O)c1-c1ccc(C(C)C)cc1` (stereo not drawn), the IC50 (Leucine aminopeptidase) is reported as 7.2 µM (active) and the IC50 (Genome polyprotein) is reported as 62.7 µM (active).

In the case of `O=C(CCNc1ccc(Cl)c(C(F)(F)F)c1)c1ccco1`, the EC50 [1] is reported as 9.96 µM (active) and the IC50 (cells) is reported as 31 µM (active).

With `COc1ccc(S(=O)(=O)N2CCC(C(=O)N3CCc4ccccc4C3)CC2)cc1C` the EC50 [1] was 4.51 µM (active).

With `CC(=O)Oc1ccc(-c2ccc(C(=O)NCCc3ccc(S(N)(=O)=O)cc3)cc2)cc1` the IC50 [3] was 11.4 µM (active) and the IC50 [4] was > 50 µM (inactive).

For `COc1ccc(CC(=O)Nc2cccc(-c3ccc4nnc(C)n4n3)c2)cc1`, the IC50 [2] was > 80 µM (inactive).

For `Clc1cccc(Cl)c1OCCOCCNCc1ccccc1`, the IC50 [5] was > 80 µM (inactive).

In the case of `Cc1[nH]c2ccccc2c1C(=O)CN1C(=O)NC2(CC(C)CC(C)(C)C2)C1=O` (stereo not drawn), the EC50 [6] is reported as 11.4 µM (active), the EC50 [7] is reported as 22.3 µM (active) and the EC50 [8] is reported as 10.8 µM (active). The IC50 [2] was 52.8 µM (inactive).

For `CCOc1ccc(NC(=O)CN2C(=O)CSC(C)C2=O)cc1` (stereo not drawn), the IC50 (Leucine aminopeptidase) was 1.21 µM (active).

With `Cc1ccc2nc(O)c(CN(Cc3ccco3)C(=O)c3ccncc3)cc2c1` the CC50 [9] was 13.5 µM (active).

In the case of `Cc1cc2oc(C(=O)Nc3ccc(S(N)(=O)=O)cc3)c(C)c2cc1Cl`, the IC50 [3] is reported as 6.72 µM (active) and the IC50 [4] is reported as > 50 µM (inactive).

In the case of `O=C(CCCOc1ccccc1)N1CCN(c2ccc(F)cc2)CC1`, the EC50 [1] is reported as 4.49 µM (active).

With `NS(=O)(=O)c1ccc(-c2ccc(C=C3C(=O)c4ccccc4C3=O)o2)cc1` the IC50 [3] was > 56.8 µM (not active) and the IC50 [4] was > 50 µM (inactive).

In the case of `CCOC(=O)c1[nH]c(C)c(C(=O)Nc2ccc(C)cc2C)c1C`, the IC50 [5] is reported as > 80 µM (inactive).

For `Cc1nn(-c2c(Cl)cc(Cl)cc2Cl)c(=O)c2ccccc12`, the CC50 [9] was 30.1 µM (active).

In the case of `O=C(NC(=S)NNS(=O)(=O)c1ccccc1)c1cccnc1`, the IC50 (Leucine aminopeptidase) is reported as 43.9 µM (active), the EC50 [10] is reported as > 300 µM (not active) and the EC50 [11] is reported as > 300 µM (not active). The IC50 [12] was > 66 µM (inactive) and the IC50 [13] was > 66 µM (inactive).

For `CCOc1ccc(N(C)S(=O)(=O)c2ccc(-c3cc(C)no3)s2)cc1`, the IC50 [5] was > 80 µM (inactive).

For `COc1ccc([N+](=O)[O-])cc1CSc1nnc(NC(C)=O)s1`, the CC50 [9] was > 40 µM (active).

In the case of `C/C(CC(=O)Nc1ccc2ccccc2c1)=N\NC(=O)c1ccc(O)c(O)c1`, the IC50 (Large T antigen) is reported as 14 µM (active), the AC50 [14] is reported as 4.3 µM (active) and the AC50 [15] is reported as 9.2 µM (active).

For `COc1ccc(/C=N/N=C2\SC(CC(=O)O)C(=O)N2c2ccccc2)c(OC)c1` (stereo not drawn), the IC50 (Leucine aminopeptidase) was 95.3 µM (active).
